Test results reported in ChEMBL document CHEMBL4699540, “Discovery and structure activity relationships of 7-benzyl triazolopyridines as stable, selective, and reversible inhibitors of myeloperoxidase” (Bioorg Med Chem, 2020).

Tests used:
[1] = Permeability of compound at pH 7.4 by PAMPA assay; assay type: ADME; conditions: read-out: permeability
[2] = Metabolic stability in mouse liver microsomes assessed as compound remaining; assay type: ADME, Microsome
[3] = Metabolic stability in human liver microsomes assessed as compound remaining; assay type: ADME, Microsome
Myeloperoxidase [4] = target: T1, Myeloperoxidase (Homo sapiens, UniProt P05164); assay: Inhibition of recombinant human MPO incubated for 10 mins in presence of 240 mM NaCl and 10 uM H2O2 by aminophenyl fluorescein based assay
T1 sequence (P05164 whole entry): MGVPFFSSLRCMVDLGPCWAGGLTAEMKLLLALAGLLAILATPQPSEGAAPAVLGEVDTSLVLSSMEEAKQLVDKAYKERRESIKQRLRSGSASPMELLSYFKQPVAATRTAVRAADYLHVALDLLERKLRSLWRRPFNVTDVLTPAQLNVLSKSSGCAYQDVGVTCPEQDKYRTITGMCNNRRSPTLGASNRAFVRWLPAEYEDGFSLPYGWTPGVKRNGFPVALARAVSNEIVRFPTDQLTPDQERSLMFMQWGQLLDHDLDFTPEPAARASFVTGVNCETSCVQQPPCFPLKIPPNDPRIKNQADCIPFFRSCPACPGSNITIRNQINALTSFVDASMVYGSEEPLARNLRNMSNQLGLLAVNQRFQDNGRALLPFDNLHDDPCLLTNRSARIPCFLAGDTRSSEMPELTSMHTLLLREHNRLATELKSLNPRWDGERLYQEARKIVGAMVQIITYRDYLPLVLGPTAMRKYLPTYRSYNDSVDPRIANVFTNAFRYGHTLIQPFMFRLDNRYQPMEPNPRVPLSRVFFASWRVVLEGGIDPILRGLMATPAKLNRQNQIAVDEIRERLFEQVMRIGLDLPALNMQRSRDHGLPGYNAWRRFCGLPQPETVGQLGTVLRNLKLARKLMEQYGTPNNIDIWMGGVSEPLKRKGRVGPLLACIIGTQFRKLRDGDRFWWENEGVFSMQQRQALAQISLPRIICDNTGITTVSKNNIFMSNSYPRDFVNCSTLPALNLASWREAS

Myeloperoxidase [5] = target: T1, Myeloperoxidase; assay: Inhibition of recombinant human MPO incubated for 10 mins by amplex red dye based assay
Cytochrome P450 3A4 = Cytochrome P450 3A4 (Homo sapiens, UniProt P08684); assay: Inhibition of CYP3A4 (unknown origin); assay type: ADME
[6] = Dissociation constant, pKa of the compound; assay type: physicochemical
Thyroid peroxidase = target: T2, Thyroid peroxidase (Homo sapiens, UniProt P07202); assay: Inhibition of TPO (unknown origin) using 3-iodo tyrosine as substrate incubated for 10 mins
T2 sequence (P07202 whole entry): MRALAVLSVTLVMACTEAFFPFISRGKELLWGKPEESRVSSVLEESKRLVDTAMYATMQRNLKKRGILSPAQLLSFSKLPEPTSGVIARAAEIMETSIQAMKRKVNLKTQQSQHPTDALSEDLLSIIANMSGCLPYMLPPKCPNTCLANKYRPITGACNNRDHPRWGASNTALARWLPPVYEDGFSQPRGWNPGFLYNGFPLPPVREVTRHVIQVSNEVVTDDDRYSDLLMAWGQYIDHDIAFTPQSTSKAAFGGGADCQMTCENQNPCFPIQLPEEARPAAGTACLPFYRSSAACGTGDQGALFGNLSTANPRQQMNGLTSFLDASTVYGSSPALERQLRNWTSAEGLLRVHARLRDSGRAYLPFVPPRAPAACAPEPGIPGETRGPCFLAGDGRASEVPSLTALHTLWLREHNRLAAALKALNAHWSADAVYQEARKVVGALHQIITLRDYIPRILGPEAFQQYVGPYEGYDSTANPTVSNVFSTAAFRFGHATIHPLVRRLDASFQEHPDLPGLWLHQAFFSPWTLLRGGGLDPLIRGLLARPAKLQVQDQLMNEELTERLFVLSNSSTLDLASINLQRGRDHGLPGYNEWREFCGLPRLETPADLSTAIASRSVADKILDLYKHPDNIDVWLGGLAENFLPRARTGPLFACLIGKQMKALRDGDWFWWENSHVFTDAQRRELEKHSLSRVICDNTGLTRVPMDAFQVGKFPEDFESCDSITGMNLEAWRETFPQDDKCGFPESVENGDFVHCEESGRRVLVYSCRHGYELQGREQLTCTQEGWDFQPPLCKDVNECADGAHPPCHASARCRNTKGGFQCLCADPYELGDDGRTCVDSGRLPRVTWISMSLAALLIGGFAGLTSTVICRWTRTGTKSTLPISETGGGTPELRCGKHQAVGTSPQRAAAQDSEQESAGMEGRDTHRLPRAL

[7] = target: T3, Methylated-DNA--protein-cysteine methyltransferase (Homo sapiens, UniProt P16455); assay: Inhibition of human MGMT using 06-benzylguanine as substrate incubated for 30 mins by LC/MS analysis; conditions: 0.5 h
T3 sequence (P16455 whole entry): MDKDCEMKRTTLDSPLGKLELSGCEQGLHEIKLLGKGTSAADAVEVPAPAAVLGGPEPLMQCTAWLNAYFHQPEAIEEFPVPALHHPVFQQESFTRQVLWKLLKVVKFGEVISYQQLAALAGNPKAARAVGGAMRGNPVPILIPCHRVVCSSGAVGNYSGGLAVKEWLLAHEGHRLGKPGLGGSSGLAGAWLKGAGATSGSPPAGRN

[8] = Stability of compound at pH 1 assessed as half life; assay type: physicochemical; conditions: buffer

Cytochrome P450 3A4, sequence (P08684 whole entry): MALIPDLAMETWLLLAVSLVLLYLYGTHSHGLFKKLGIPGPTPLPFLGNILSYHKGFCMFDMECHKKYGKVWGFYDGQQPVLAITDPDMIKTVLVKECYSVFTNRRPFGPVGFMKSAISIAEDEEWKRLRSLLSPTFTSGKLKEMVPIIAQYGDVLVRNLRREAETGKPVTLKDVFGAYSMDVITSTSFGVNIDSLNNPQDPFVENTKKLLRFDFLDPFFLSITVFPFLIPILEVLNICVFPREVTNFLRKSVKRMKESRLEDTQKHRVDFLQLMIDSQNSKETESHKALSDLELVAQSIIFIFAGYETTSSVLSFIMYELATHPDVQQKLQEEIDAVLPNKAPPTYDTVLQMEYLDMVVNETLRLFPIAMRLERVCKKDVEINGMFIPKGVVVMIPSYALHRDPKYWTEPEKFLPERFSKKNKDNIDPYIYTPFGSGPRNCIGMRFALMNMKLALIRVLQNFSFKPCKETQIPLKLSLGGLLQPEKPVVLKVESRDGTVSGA

SMILES	Papp [1]	Stabilty [2]	Stabilty [3]	IC50 (Myeloperoxidase [4])	IC50 (Myeloperoxidase [5])	further results
Nc1cc([C@H](CCN[C@H]2CCc3ccccc32)c2ccccc2)c2nn[nH]c2n1	6.5 ×10⁻⁶ cm/s	51%	65%			
Nc1cc([C@H](Cc2ccccc2)c2ccccc2)c2nn[nH]c2n1	64.8 ×10⁻⁶ cm/s	53%	84%			IC50 (Cytochrome P450 3A4): 3400 nM
Nc1cc([C@H](CCCN2CCC(c3ccccc3)CC2)c2ccccc2)c2nn[nH]c2n1	1.3 ×10⁻⁶ cm/s					
Nc1cc([C@H](CCN[C@H]2C[C@@H](c3ccccc3)c3ccccc32)c2ccccc2)c2nn[nH]c2n1		28%	35%			
Nc1cc([C@H](CCN(CCF)C23CCC(c4ccccc4)(CC2)CC3)c2ccccc2)c2nn[nH]c2n1	21.7 ×10⁻⁶ cm/s					
Nc1cc([C@H](CCN[C@@H]2CC[C@@H](c3ccccc3)c3ccccc32)c2ccccc2)c2nn[nH]c2n1		10%	9%			
Nc1cc([C@H](CCN[C@H]2CC[C@H](c3ccccc3)CC2)c2ccccc2)c2nn[nH]c2n1		79%	80%			
Nc1cc(C(CCNC23CCC(c4ccccc4)(CC2)OC3)c2ccccc2)c2nn[nH]c2n1 (centres undefined)	10.4 ×10⁻⁶ cm/s					
Nc1cc(OCc2ccccc2)c2nn[nH]c2n1						inhibition (INH) [7]: Active; half-life [8]: > 100 h
Nc1cc([C@H](CCNC23CCC(c4ccccc4)(CC2)CC3)c2ccccc2)c2nn[nH]c2n1	1.7 ×10⁻⁶ cm/s	85%	91%			
Nc1cc([C@H](CCN[C@@H]2CC[C@@H](c3ccccc3)C2)c2ccccc2)c2nn[nH]c2n1	2.4 ×10⁻⁶ cm/s	45%	73%			
Nc1cc([C@H](CCN[C@@H]2CC[C@@H](c3ccccc3)OC2)c2ccccc2)c2nn[nH]c2n1	3.7 ×10⁻⁶ cm/s					
CN(CC[C@H](c1ccccc1)c1cc(N)nc2[nH]nnc12)C12CCC(c3ccccc3)(CC1)CC2	0.1 ×10⁻⁶ cm/s					

Now from value to molecule, other results behind:

Papp [1]	Stabilty [2]	Stabilty [3]	IC50 (Myeloperoxidase [4])	IC50 (Myeloperoxidase [5])	SMILES	further results
			57 nM	188 nM	Nc1cc(Cc2ccc3ccccc3c2)c2nn[nH]c2n1	
125 ×10⁻⁶ cm/s	1%	31%			Nc1cc([C@H](CCCc2ccccc2)c2ccccc2)c2nn[nH]c2n1	IC50 (Cytochrome P450 3A4): 1800 nM
			683 nM	1430 nM	Nc1cc(Cc2cccc(C(F)(F)F)c2)c2nn[nH]c2n1	
			> 40000 nM	> 40000 nM	Nc1nc(NCc2ccccc2)c2nn[nH]c2n1	pKa [6]: 7.8
			127 nM	77 nM	Nc1cc(Cc2cccc(-c3ccccc3)c2)c2nn[nH]c2n1	
			16 nM	32 nM	Nc1cc(Cc2cccc(Cl)c2)c2nn[nH]c2n1	
			> 40000 nM	> 40000 nM	CN(Cc1ccccc1)c1nc(N)nc2[nH]nnc12	
			29 nM	17 nM	COC(=O)c1cccc(Cc2cc(N)nc3[nH]nnc23)c1	
			32 nM	46 nM	Nc1cc(Cc2ccccc2F)c2nn[nH]c2n1	
73 ×10⁻⁶ cm/s	1%	2%			Nc1cc([C@H](CCOCc2ccccc2)c2ccccc2)c2nn[nH]c2n1	IC50 (Cytochrome P450 3A4): 2600 nM; IC50 (Thyroid peroxidase): 6300 nM
			110 nM	428 nM	Nc1nc(Cc2ccccc2)c2nn[nH]c2n1	inhibition (INH) [7]: Not Active; pKa [6]: 6.3; half-life [8]: 16 h
			7450 nM	9840 nM	Nc1nc(CCc2ccccc2)c2nn[nH]c2n1	
4.3 ×10⁻⁶ cm/s	85%	88%			Nc1cc([C@H](CCNCc2ccccc2)c2ccccc2)c2nn[nH]c2n1	IC50 (Cytochrome P450 3A4): 12000 nM; IC50 (Thyroid peroxidase): > 50000 nM
			1700 nM	9300 nM	Nc1cc(Cc2ccc(Cl)cc2)c2nn[nH]c2n1	
23.7 ×10⁻⁶ cm/s	3%	2%			Nc1cc([C@H](CCNCc2ccccc2C(F)(F)F)c2ccccc2)c2nn[nH]c2n1	
